In patent publication US20150216806A1, “LAXATIVE COMPOSITIONS AND METHODS FOR TREATING CONSTIPATION AND RELATED GASTROINTESTINAL DISEASES AND CONDITIONS” (SALIX PHARMACEUTICALS, INC., priority 2012, published 2015):

Test system: patient with chronic constipation
Assay: Example 7: case report, bisoxatin added to colchicine in chronic constipation
Format: in vivo, human
Conditions: 1 mg in the morning and 1.5 in the evening; still missing a day here and there
Procedure: They were given added bisoxatin of 120 mg twice daily. […] They were going too well however and the bisoxatin had to be cut back 120 mg mane. For a week or so they were able to take the bisoxatin 120 in the morning and every second day 120 at night. They continued with the treatment for 3 or 4 weeks to date.

Compound: COc1cc2c(c(OC)c1OC)-c1ccc(OC)c(=O)cc1[C@@H](NC(C)=O)CC2 [colchicine]
- response of constipation to colchicine alone: did not respond
